Measurements reported in patent US9115117B2, “Substituted piperidine compounds and their use as orexin receptor modulators” (JANSSEN PHARMACEUTICA NV, priority 2013, dated 2015).
Counter-ions that a name gives are not always drawn.

Key:
[1] = molecular target: rat orexin 1 receptor (Rattus norvegicus, UniProt P56718); experiment: Rat orexin 1 receptor radioligand binding; settings: HEK293 cells stably expressing rat orexin 1 receptor; apparent Ki; read-out: rOX1 Ki
Protocol: After centrifugation (2K×G, 5 min at 4° C.), the supernatant was aspirated and the pellets frozen and stored at −80° C. […] Each cell pellet from a 15 cm plate was resuspended in 10 mL, stored on ice, and homogenized for 45 sec prior to addition to the reactions. Competition binding experiments in 96 well polypropylene plates were performed using [^3H]-(1-(5-(2-fluoro-phenyl)-2-methyl-thiazol-4-yl)-1-((S)-2-(5-phenyl-(1,3,4)oxadiazol-2-ylmethyl)-pyrrolidin-1-yl)-methanone) (Moraveck Corporation, specific activity=35.3 Ci/mmol), diluted to a 10 nM concentration in PBS (4 nM final). […] The final concentration of DMSO in the reactions is equal to or less than 0.1%. Total and nonspecific binding was determined in the absence and presence of 10 μM almorexant. The total volume of each reaction is 200 μL (20 μL of diluted compounds, 80 μL of [3H]-(1-(5-(2-fluoro-phenyl)-2-methyl-thiazol-4-yl)-1-((S)-2-(5-phenyl-(1,3,4)oxadiazol-2-ylmethyl)-pyrrolidin-1-yl)-methanone) diluted in PBS and 100 μL of the cell suspension). […] The plates were washed 3 times by aspirating 30 ml PBS through the plates. Plates were dried in 55° C. oven for 60 min, scintillation fluid was added, and the radioactivity was counted on a Topcount (Packard).

[2] = molecular target: human orexin 1 receptor (Homo sapiens, UniProt O43613); experiment: Human orexin 1 receptor radioligand binding; settings: CHO cells stably expressing human orexin 1 receptor; apparent Ki; read-out: hOX1 Ki
Protocol: The in vitro affinity of the compounds of the invention for the rat/human orexin 1 and human orexin 2 receptors was determined by competitive radioligand binding using [^3H](1-(5-(2-fluoro-phenyl)-2-methyl-thiazol-4-yl)-1-((S)-2-(5-phenyl-(1,3,4)oxadiazol-2-ylmethyl)-pyrrolidin-1-yl)-methanone)(Langmead et al., 2004) and [^3H]EMPA (n-ethyl-2[96-methoxy-pyridin-3-yl)-(toluene-2-sulfonyl)-amino]-N-pyridin-3-ylmethyl acetamide), respectively (Langmead et al., 2004, British Journal of Pharmacology 141:340-346; Malherbe et al., 2004, British Journal of Pharmacology 156:1326-41).
Human Embryonic Kidney 293 cells (HEK293) stably expressing rat orexin 1 receptor (Genebank accession number NM_001525) or Chinese ovary cells (CHO) stably expressing human orexin 1 receptor (Genebank accession number NM_001526) were grown to confluency in DMEM (Hyclone, cat #SH30022), 10% FBS, 1× Pen/Strep, 1× sodium pyruvate, 10 mM HEPES, 600 µg/mL G418 and DMEM/F12 (Gibco, Cat #11039), 10% FBS, 1× Pen/Strep, 600 µg/mL G418 media, respectively on 150 cm^2 tissue culture plates, washed with 5 mM EDTA in PBS (HyClone Dulbecco's Phoshpate Buffered Saline 1× with Calcium and Magnesium, Cat #SH30264.01, hereafter referred to simply as PBS) and scraped into 50 ml tubes. After centrifugation (2K×G, 5 min at 4° C.), the supernatant was aspirated and the pellets frozen and stored at −80° C. Cells were resuspended in PBS in the presence of 1 tablet of protease inhibitor cocktail (Roche, Cat. #11836145001) per 50 mL. Each cell pellet from a 15 cm plate was resuspended in 10 mL, stored on ice, and homogenized for 45 sec prior to addition to the reactions. Competition binding experiments in 96 well polypropylene plates were performed using [^3H]-(1-(5-(2-fluoro-phenyl)-2-methyl-thiazol-4-yl)-1-((S)-2-(5-phenyl-(1,3,4)oxadiazol-2-ylmethyl)-pyrrolidin-1-yl)-methanone) (Moraveck Corporation, specific activity=35.3 Ci/mmol), diluted to a 10 nM concentration in PBS (4 nM final). […] The final concentration of DMSO in the reactions is equal to or less than 0.1%. Total and nonspecific binding was determined in the absence and presence of 10 μM almorexant. The total volume of each reaction is 200 μL (20 μL of diluted compounds, 80 μL of [3H]-(1-(5-(2-fluoro-phenyl)-2-methyl-thiazol-4-yl)-1-((S)-2-(5-phenyl-(1,3,4)oxadiazol-2-ylmethyl)-pyrrolidin-1-yl)-methanone) diluted in PBS and 100 μL of the cell suspension). Reactions were run for 60 min at room temperature and terminated by filtration through GF/C filter plates (PerkinElmer, Cat. #6005174) presoaked in 0.3% polyethylenimine using the cell harvester (PerkinElmer Filtermate). The plates were washed 3 times by aspirating 30 ml PBS through the plates. Plates were dried in 55° C. oven for 60 min, scintillation fluid was added, and the radioactivity was counted on a Topcount (Packard).

[3] = molecular target: human orexin 2 receptor (Homo sapiens (Human), UniProt O43614); experiment: Human orexin 2 receptor radioligand binding ([3H]-EMPA); settings: HEK293 stably expressing human orexin 2 receptor; [3H]-EMPA; apparent Ki; read-out: hOX2 Ki
Protocol: After centrifugation (2K×G, 5 min at 4° C.), the supernatant was aspirated and the pellets frozen and stored at −80° C. […] Each cell pellet from a 15 cm plate was resuspended in 10 mL, stored on ice, and homogenized for 45 sec just prior to addition to the reactions. Competition binding experiments in 96 well polypropylene plates were performed using [^3H]-EMPA (Moraveck Corporation, specific activity=29.6 Ci/mmol), diluted to a 5 nM concentration in PBS (2 nM final concentration). […] The final concentration of DMSO in the reactions is equal to or less than 0.1%. Total and nonspecific binding was determined in the absence and presence of […]. The total volume of each reaction is 200 μL (20 μL of diluted compounds, 80 μL of [^3H]-EMPA diluted in PBS and 100 μL of the cell suspension).
The plates were washed 3 times by aspirating 30 ml PBS through the plates. Plates were dried in 55° C. oven for 60 min, scintillation fluid was added, and the radioactivity was counted on a Topcount (Packard).

human orexin 2 receptor, sequence (O43614 whole entry): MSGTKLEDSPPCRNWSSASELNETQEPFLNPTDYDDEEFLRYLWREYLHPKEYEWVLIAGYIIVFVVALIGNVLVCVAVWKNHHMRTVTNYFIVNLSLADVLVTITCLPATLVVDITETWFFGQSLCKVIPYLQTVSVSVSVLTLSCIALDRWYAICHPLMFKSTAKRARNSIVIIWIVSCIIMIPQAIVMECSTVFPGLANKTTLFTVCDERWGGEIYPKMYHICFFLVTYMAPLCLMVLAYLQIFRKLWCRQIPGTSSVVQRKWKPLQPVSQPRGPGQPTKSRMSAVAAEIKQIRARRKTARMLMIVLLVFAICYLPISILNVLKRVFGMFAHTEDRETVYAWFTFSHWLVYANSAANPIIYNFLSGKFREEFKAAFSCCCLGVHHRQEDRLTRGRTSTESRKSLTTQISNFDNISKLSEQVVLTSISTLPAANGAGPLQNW

Row | Structure (SMILES) | Ki [1] [nM] | Ki [2] [nM] | Ki [3] [nM]
1 | Cc1ccc(C(=O)N2CCC[C@@H](Nc3nccc(C(F)(F)F)n3)[C@@H]2C)c(-n2ccnn2)n1 (racemic) [Example 11, (±)-trans-(6-methyl-2-(1H-1,2,3-triazol-1-yl)pyridin-3-yl)(2-methyl-3-((4-(trifluoromethyl)pyrimidin-2-yl)amino)piperidin-1-yl)methanone] |  | 9000 | 
2 | Cc1cc(C)nc(N[C@@H]2CCCN(C(=O)c3ccc(F)cc3-n3nccn3)[C@H]2C)n1 (racemic) [Example 1, (±)-trans-(3-((4,6-dimethylpyrimidin-2-yl)amino)-2-methylpiperidin-1-yl)(4-fluoro-2-(2H-1,2,3-triazol-2-yl)phenyl)methanone] |  | 1030 | 290
3 | Cc1cc(C)nc(N[C@@H]2CCCN(C(=O)c3c(F)cccc3-n3nccn3)[C@H]2C)n1 (racemic) [Example 3, (±)-trans-(3-((4,6-dimethylpyrimidin-2-yl)amino)-2-methylpiperidin-1-yl)(2-fluoro-6-(2H-1,2,3-triazol-2-yl)phenyl)methanone] |  | 1060 | 260
4 | Cc1ccc(-c2ncccn2)c(C(=O)N2CCC[C@@H](Nc3ccc(C(F)(F)F)cn3)[C@@H]2C)n1 (racemic) [Example 23, (±)-trans-(2-methyl-3-((5-(trifluoromethyl)pyridin-2-yl)amino)piperidin-1-yl)(6-methyl-3-(pyrimidin-2-yl)pyridin-2-yl)methanone hydrochloride] |  | 23 | 208
5 | Cc1cc(C)nc(N[C@@H]2CCCN(C(=O)c3c(F)cccc3-c3ncccn3)[C@H]2C)n1 (racemic) [Example 2, (±)-trans-(3-((4,6-dimethylpyrimidin-2-yl)amino)-2-methylpiperidin-1-yl)(2-fluoro-6-(pyrimidin-2-yl)phenyl)methanone] |  | 400 | 217
6 | Cc1cc(N[C@@H]2CCCN(C(=O)c3cc(F)ccc3-c3ncccn3)[C@H]2C)nc(C(F)(F)F)n1 (racemic) [Example 9, (±)-trans-(5-fluoro-2-(pyrimidin-2-yl)phenyl)(2-methyl-3-((6-methyl-2-(trifluoromethyl)pyrimidin-4-yl)amino)piperidin-1-yl)methanone] |  | 6710 | 2050
7 | C[C@H]1[C@H](Nc2nccc(C(F)(F)F)n2)CCCN1C(=O)c1c(F)cccc1-n1nccn1 (racemic) [Example 10, (±)-trans-(2-fluoro-6-(2H-1,2,3-triazol-2-yl)phenyl)(2-methyl-3-((4-(trifluoromethyl)pyrimidin-2-yl)amino)piperidin-1-yl)methanone] |  | 315 | 144
8 | COc1c(F)cccc1C(=O)N1CCC[C@@H](Nc2ccc(C(F)(F)F)cn2)[C@H]1C (racemic) [Example 54, (±)-cis-(3-fluoro-2-methoxyphenyl)(2-methyl-3-((5-(trifluoromethyl)pyridin-2-yl)amino)piperidin-1-yl)methanone] | 4500 |  | > 10000
9 | Cc1cc(C)nc(N[C@@H]2CCCN(C(=O)c3cc(F)ccc3-n3nccn3)[C@H]2C)n1 (racemic) [Example 5, (±)-trans-(3-((4,6-dimethylpyrimidin-2-yl)amino)-2-methylpiperidin-1-yl)(5-fluoro-2-(2H-1,2,3-triazol-2-yl)phenyl)methanone] |  | 560 | 116

Second part, the molecule after the results:

Row | Ki [1] [nM] | Ki [2] [nM] | Ki [3] [nM] | Structure (SMILES)
10 | 55 | 54 |  | C[C@H]1[C@H](Nc2ncc(Cl)cn2)CCCN1C(=O)c1ccccc1-n1nccn1 (racemic) [Example 30, (±)-trans-(2-(2H-1,2,3-triazol-2-yl)phenyl)(3-((5-chloropyrimidin-2-yl)amino)-2-methylpiperidin-1-yl)methanone]
11 |  | 29 |  | C[C@H]1[C@H](Nc2ncc(C(F)(F)F)cn2)CCCN1C(=O)c1ccccc1-n1nccn1 (racemic) [Example 35, (±)-trans-(2-(2H-1,2,3-triazol-2-yl)phenyl)(2-methyl-3-((5-(trifluoromethyl)pyrimidin-2-yl)amino)piperidin-1-yl)methanone]
12 | 76 | 71 |  | Cc1ccc(N[C@@H]2CCCN(C(=O)c3ccccc3-n3nccn3)[C@H]2C)nc1 (racemic) [Example 37, (±)-trans-(2-(2H-1,2,3-triazol-2-yl)phenyl)(2-methyl-3-((5-methylpyridin-2-yl)amino)piperidin-1-yl)methanone]
13 |  | 462 | 587 | Cc1ccc(-n2nccn2)c(C(=O)N2CCC[C@@H](Nc3cc(C)nc(C(F)(F)F)n3)[C@@H]2C)c1 (racemic) [Example 8, (±)-trans-(5-methyl-2-(2H-1,2,3-triazol-2-yl)phenyl)(2-methyl-3-((6-methyl-2-(trifluoromethyl)pyrimidin-4-yl)amino)piperidin-1-yl)methanone]
14 | 1800 |  | > 10000 | CCOc1ccccc1C(=O)N1CCC[C@@H](Nc2ccc(Br)cn2)[C@H]1C (racemic) [Example 59, (±)-cis-(3-(5-bromopyridin-2-yl)amino)-2-methylpiperidin-1-yl)(2-ethoxyphenyl)methanone]
15 |  | 78 | 40 | Cc1cc(C)nc(N[C@@H]2CCCN(C(=O)c3ccccc3-n3nccn3)[C@H]2C)n1 (racemic) [Example 4, (±)-trans-(2-(2H-1,2,3-triazol-2-yl)phenyl)(3-((4,6-dimethylpyrimidin-2-yl)amino)-2-methylpiperidin-1-yl)methanone]
16 | 355 |  | 700 | C[C@H]1[C@H](Nc2ccc(F)cn2)CCCN1C(=O)c1ccccc1-n1nccn1 [Example 34, (2-(2H-1,2,3-triazol-2-yl)phenyl)((2S,3R)-3-((5-fluoropyridin-2-yl)amino)-2-methylpiperidin-1-yl)methanone]
17 | 870 |  | 822 | C[C@H]1[C@H](Nc2ncc(F)cn2)CCCN1C(=O)c1ccccc1-n1nccn1 (racemic) [Example 40, (±)-trans-(2-(2H-1,2,3-triazol-2-yl)phenyl)(3-((5-fluoropyrimidin-2-yl)amino)-2-methylpiperidin-1-yl)methanone]
